# Measurements reported in ChEMBL document CHEMBL1138775, “Soft docking and multiple receptor conformations in virtual screening” (J Med Chem, 2004).
# Target: T1, Aldo-keto reductase family 1 member B1 (Sus scrofa, UniProt P80276)
# Test: Inhibition of aldose reductase from pig lenses; no inhibition
row,IC50,Compound
1,> 400 µM,CC(OCc1ccc(Cl)cc1)C(NC(=O)CC(C)(C)C)C(=O)O (stereo not drawn)
2,> 300 µM,CC(OCc1ccccc1)C(NC(=O)OCc1ccccc1)C(=O)O (stereo not drawn)

# Target: T1, Aldo-keto reductase family 1 member B1
# Test: Inhibition of aldose reductase from pig lenses
row,Compound,IC50
1,Clc1ccc(CN(Cc2ccc(Cl)cc2)c2nnn[nH]2)cc1,336 µM
2,O=C(O)c1nnn(-c2cccc(Br)c2)c1-c1ccccc1,274 µM
3,O=C1NC(=O)[C@@]2(CCOc3ccc(F)cc32)N1 [SORBINIL],1.1 µM
4,COc1ccc2c(C(=S)N(C)CC(=O)O)cccc2c1C(F)(F)F [TOLRESTAT],0.038 µM

# Results, then the compound that gave them:
row,IC50,Compound
1,14 µM,O=C(O)Cc1cn(Cc2cccc(Cl)c2)c2ccccc12
2,8 µM,O=C(O)C1CC(=O)N(Cc2ccc(Cl)cc2)C1 (stereo not drawn)
